In patent US6218431A, “Substituted biphenyls” (Bayer Corporation, priority 1997, dated 2001):

biological target: T1, glucagon receptor (Homo sapiens, UniProt P47871); test: glucagon receptor binding assay (125I-glucagon, CHO-HGR membranes); conditions: 20 μM; reported where 20 μM did not reduce glucagon binding by 50%
T1 construct: expressed in transfected cells; host or cells: Chinese Hamster Ovary cells (CHO-HGR), membranes
Summary of the method: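 Membranes from CHO cells expressing glucagon receptor (10 ug protein) in Tris pH 7.4 buffer with EDTA, BSA and bacitracin, incubated with test compound and 125I-glucagon (9 fmol) 60 min at room temperature. Bound radioactivity counted after filtration; nonspecific binding defined with 1 μM native glucagon; 0.5% DMSO.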

T1 sequence (P47871 26-477): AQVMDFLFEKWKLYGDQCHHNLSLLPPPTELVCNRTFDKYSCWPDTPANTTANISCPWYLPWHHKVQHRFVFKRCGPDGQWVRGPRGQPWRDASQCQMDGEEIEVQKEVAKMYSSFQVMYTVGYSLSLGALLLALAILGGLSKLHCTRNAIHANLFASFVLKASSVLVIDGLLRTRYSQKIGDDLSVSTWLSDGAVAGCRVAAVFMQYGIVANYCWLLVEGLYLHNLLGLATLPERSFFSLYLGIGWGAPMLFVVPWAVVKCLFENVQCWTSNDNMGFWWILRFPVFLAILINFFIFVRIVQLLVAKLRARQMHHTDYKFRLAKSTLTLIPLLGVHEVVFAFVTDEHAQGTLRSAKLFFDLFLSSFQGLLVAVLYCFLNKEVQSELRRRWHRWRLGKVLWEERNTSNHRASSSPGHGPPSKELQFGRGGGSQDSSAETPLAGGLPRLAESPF

Row | Compound | inhibition at 20 µM [%]
1 | CCCCCc1c(C(C)C)nc(C(C)C)c(C(O)CC)c1-c1ccc(F)cc1 (racemic) [Example 117] | 45.1
2 | C=CCC(O)c1c(C(C)C)nc(C(C)C)c(CCCCC)c1-c1ccc(F)cc1 (racemic) [Example 116] | 17
3 | CCCC=Cc1c(C(C)C)nc(C(C)C)c(CO)c1-c1ccc(S(C)(=O)=O)cc1 [Example 176, 2,6-Diisopropyl-3-hydroxymethyl-4-[4-(methylsulfonyl)phenyl]-5-(pent-1-enyl)pyridine] | 13.8
4 | CCC(OC)c1c(C(C)C)nc(C(C)C)c(CO)c1-c1ccc(F)cc1 (racemic) [Example 99, (±)-2,6-Diisopropyl-3-hydroxymethyl-4-(4-fluorophenyl)-5-(1-methoxy-5-propyl)pyridine] | 43.2
5 | CCCC=Cc1c(C(C)C)nc(C(C)C)c(CO)c1-c1ccc(CC)cc1 [Example 131, 2,6-Diisopropyl-3-hydroxymethyl-4-(4-ethylphenyl)-5-(pent-1-enyl)-pyridine] | 37.3
6 | CC(C)c1nc(C(C)C)c(CN2CCC(c3ccccc3)CC2)c(-c2ccc(F)cc2)c1CO [Example 72] | 42.1
7 | CCCCCc1c(C(C)C)nc(C(C)C)c(CO)c1-c1ccc(C(C)C)cc1 [Example 134, 2,6-Diisopropyl-3-hydroxymethyl-4-(4-isopropylphenyl)-5-pentylpyridine] | 34.4
8 | CC(C)c1nc(C(C)C)c(CN2CCCC2)c(-c2ccc(F)cc2)c1CO [Example 71, 2,6-Diisopropyl-3-hydroxymethyl-4-(4-fluorophenyl)-5-(pyrrolindino-methyl)pyridine] | 46.3
9 | CC(C)c1nc(C(C)C)c(CCCC(=O)O)c(-c2ccc(F)cc2)c1CO [Example 92, 2,6-Diisopropyl-3-hydroxymethyl-4-(4-fluorophenyl)-5-(3carboxypropyl)pyridine] | 11.6
10 | CCCCCc1c(C(C)C)nc(C(C)C)c(CN(C)C)c1-c1ccc(F)cc1 [Example 122, 2,6-Diisopropyl-3-(dimethylamino)methyl-4-(4-fluorophenyl)-5-pentyl-pyridine] | 7.54
11 | CCCC=Cc1c(C(C)C)nc(C(C)C)c(CO)c1-c1ccc(SC)cc1 [Example 174, 2,6-Diisopropyl-3hydroxymethyl-4-[4-(methylthio)phenyl]-5-(pent-1-enyl)pyridine] | 33.4

same assay, conditions: 125I-glucagon; 60 min at room temperature; read-out: IC50

Row | Compound | IC50 [nM]
12 | C=Cc1nc(C(C)C)c(CO)c(-c2ccc(F)cc2)c1CCCCC [Example 214, 2-Ethenyl-3-pentyl-4-(4-fluorophenyl)-5-hydroxymethyl-6-isopropylpyridine] | 5000
13 | CCCC=Cc1c(C(C)C)nc(C(C)C)c(CO)c1-c1ccccc1F [Example 137, 2,6-Diisopropyl-3-hydroxymethyl-4-(2-fluorophenyl)-5-(pent-1-enyl)-pyridine] | 11000
14 | COc1cccc(SCc2c(C(C)C)nc(C(C)C)c(CO)c2-c2ccc(F)cc2)c1 [Example 54, 2,6-Diisopropyl-3-hydroxymethyl-4-(4-fluorophenyl)-5-[(3-methyoxy-phenyl)thio]methylpyridine] | 1800
15 | COc1ccccc1SCc1c(C(C)C)nc(C(C)C)c(CO)c1-c1ccc(F)cc1 [Example 60, 2,6-Diisopropyl-3-hydroxymethyl-4-(4-fluorophenyl)-5-[(2-methoxy-phenyl)thio]methylpyridine] | 1600
16 | CCCCCc1c(C(C)C)nc(C(C)C)c(C(O)C(F)(F)F)c1-c1ccc(F)cc1 (racemic) [Example 118, (±)-2,6-Diisopropyl-3-(2,2,2-trifluoro-1-hydroxy)ethyl-4-(4-fluoro-phenyl)-5-pentylpyridine] | 13000
17 | CCCCCCc1c(C(C)C)nc(C(C)C)c(CO)c1-c1ccccc1 [Example 16, 2,6Diisopropyl-3-hydroxymethyl-4-phenyl-5-hexylpyridine] | 850
18 | Cc1c(F)c(F)c(SCc2c(C(C)C)cc(C(C)C)c(CO)c2-c2ccc(F)cc2)c(F)c1F [Example 286] | 18000
19 | CCCCC=Cc1c(C(C)C)nc(C(C)C)c(CO)c1-c1ccc(F)cc1 [Example 19, 2,6-Diisproyl-3-hyroxymethyl-4-(4-fluorophenyl)-5-(1-hexenyl)-pyridine] | 700
20 | CC1=CC(C)(C)Cc2c1nc(C(C)C)c(C(C)O)c2-c1ccc(F)cc1 (stereo not drawn) [Example 237, 2-Isopropyl-3-(1-hydroxyethyl)-4-(4-fluorophenyl)-5,6-dihydro-6,6,8-trimethylquinoline] | 1200
21 | CC(C)c1nc(C(C)C)c(C(C)O)c(-c2ccc(F)cc2)c1CSc1ccccc1 (racemic) [Example 113, (±)-2,6-Diisopropyl-3-(1-hydroxyethyl)-4-(4-fluorophenyl)-5-phenylthio-methylpyridine] | 600
22 | CC(C)c1cc(C(C)C)c(CSc2c(F)c(F)c(Cl)c(F)c2F)c(-c2ccc(F)cc2)c1CO [Example 287] | 20000
23 | CCCc1c(C(C)C)nc(C(C)C)c(CO)c1-c1ccc(F)cc1O (single isomer, unassigned) [Example 239-E2, 2,6-Diisopropyl-3-(1-hydroxymethyl)-4-(4-fluoro-2-hydroxyphenyl)-5-propylpyridine] | 50
24 | CCCCCC=Cc1c(C(C)C)nc(C(C)C)c(CO)c1-c1ccc(F)cc1 [Example 32, 2,6-Diisopropyl-3-hydroxymethyl-4-(4-fluorophenyl)-5-(1-heptenyl)-pyridine] | 1100
25 | CCCCCc1c(C(C)C)nc(C(C)C)c(CO)c1-c1ccc(Cl)cc1 [Example 144, 2,6-Diisopropyl-3-hydroxymethyl-4-(4-chlorophenyl)-5-pentylpyridine] | 800
26 | C=CCOCc1nc(C(C)C)c(CO)c(-c2ccc(F)cc2)c1CCCCC [Example 203, 2-(Prop-2-enyloxy)methyl-3-pentyl-4-(4-fluorophenyl)-5-hydroxymethyl-6-isopropylpyridine] | 6300
27 | CCCCCc1c(C(C)C)cc(C(C)C)c(C(C)O)c1-c1ccc(F)cc1 (stereo not drawn) [Example 191, 3,5-Diisopropyl-2-(1-hydroxyethyl)-6-pentyl-4'-fluoro-1,1'-biphenyl] | 130
28 | CC(C)c1nc(C(C)C)c(CSc2ccc([N+](=O)[O-])cc2)c(-c2ccc(F)cc2)c1CO [Example 68, 2,6-Diisopropyl-3-hydroxymethyl-4-(4-fluorophenyl)-5-[(4-nitrophenyl)-thio]methylpyridine] | 13000
29 | CCCc1c(C(C)C)cc(C(C)C)c(C(C)O)c1-c1ccc(F)cc1O (stereo not drawn) [Example 242, 3,5-Diisopropyl-2-(1-hydroxyethyl)-6-propyl-4'-fluoro-2'-hydroxy-1,1'-biphenyl] | 5
30 | CCCCCc1c(C(C)C)cc(C(C)C)c(C(C)O)c1-c1ccc(F)cc1O (stereo not drawn) [Example 247, 3,5-Diisopropyl-2-(1-hydroxyethyl)-6-pentyl-4'-fluoro-2'-hydroxy-1,1'-biphenyl] | 6
31 | CC(C)c1nc(C(C)C)c(CSc2c(F)c(F)cc(F)c2F)c(-c2ccc(F)cc2)c1CO [Example 53, 2,6-Diisopropyl-3-hydroxymethyl-4-(4-fluorophenyl)-5-[(2,3,5,6-tetra-fluorophenyl)thio]methylpyridine] | 4900
32 | CCCCCc1c(C(C)C)nc(C(C)C)c(CO)c1-c1ccoc1 [Example 188, 2,6-Diisopropyl-3-hydroxymethyl-4-(3-furyl)-5-pentylpyridine] | 10500
33 | CC(C)c1nc(C(C)C)c(CSc2ccc3ccccc3c2)c(-c2ccc(F)cc2)c1CO [Example 52, 2,6Diisopropyl-3hydroxymethyl-4-(4-fluorophenyl)-5-(2-naphthyl-thio)methlpyridine] | 20000

same assay, conditions: IC50, 125I-glucagon; 60 min at room temperature

Row | Compound | IC50 [nM]
34 | CCCCCc1c(C(O)CCC)nc(C(C)C)c(CO)c1-c1ccc(F)cc1 (stereo not drawn) [Example 211, 2-(1-Hydroxybutyl)-3-pentyl-4-(4-fluorophenyl)-5-hydroxymethyl-6-isopropylpyridine] | 19000

test system: rat liver membrane; test: not given; conditions: Collins et al. 1992; cited from earlier work

Row | Compound | inhibit glucagon action
35 | CN(C)CCCN(C)c1nc2cc(Cl)c(Cl)cc2nc1/C=C/c1ccccc1 [CP-99,711] | micromolar concentrations

test system: rat liver membrane; test: not given; conditions: Collins et al. 1992; cited from earlier work; remark: another data set of the same source

Row | Compound | inhibit glucagon binding
36 | CN(C)CCCN(C)c1nc2cc(Cl)c(Cl)cc2nc1/C=C/c1ccccc1 [CP-99,711] | micromolar concentrations
